Laboratory results reported in patent publication US11331369B2, “Endoparasitic depsipeptides” (Zoetis Services LLC, priority 2017, dated 2022).

Key:
[1] = system: microfilariae of Dirofilaria immitis; experiment: Dirofilaria immitis, Microfilaria (DiMF) In vitro Assay; type: cell-based; details: 72 h, read-out: DiMF Minimum Effective Dose (MED), approximately 72 hours incubation, microfilariae assessed for survival or paralysis
[2] = system: third stage larvae of Haemonchus contortus; experiment: Haemonchus contortus L3 (HcL3) Assay; type: cell-based; details: 96 h, read-out: HcL3 Minimum Effective Dose (MED)

SMILES	minimal effective concentration [1]	minimal effective concentration [2]
CC(C)C[C@H]1C(=O)O[C@H](Cc2ccc(Cn3ccnc3C3CC3)cc2)C(=O)N(C)[C@@H](CC(C)C)C(=O)O[C@H](C)C(=O)N(C)[C@@H](CC(C)C)C(=O)O[C@H](Cc2ccccc2)C(=O)N(C)[C@@H](CC(C)C)C(=O)O[C@H](C)C(=O)N1C [Example 8-7, (3S,6R,9S,12R,15S,18R,21S,24R)-6-benzyl-18-[[4-[(2-cyclopropylimidazol-1-yl)methyl]phenyl]methyl]-3,9,15,21-tetraisobutyl-4,10,12,16,22,24-hexamethyl-1,7,13,19-tetraoxa-4,10,16,22-tetrazacyclotetracosane-2,5,8,11,14,17,20,23-octaone]	0.001 to 0.01 µM	1 to 10 µM
CC(C)C[C@H]1C(=O)O[C@H](Cc2ccc(Cn3ccc(N)n3)cc2)C(=O)N(C)[C@@H](CC(C)C)C(=O)O[C@H](C)C(=O)N(C)[C@@H](CC(C)C)C(=O)O[C@H](Cc2ccccc2)C(=O)N(C)[C@@H](CC(C)C)C(=O)O[C@H](C)C(=O)N1C [Example 2-87, (3S,6R,9S,12R,15S,18R,21S,24R)-6-(4-((3-amino-1H-pyrazol-1-yl)methyl)benzyl)-18-benzyl-3,9,15,21-tetraisobutyl-4,10,12,16,22,24-hexamethyl-1,7,13,19-tetraoxa-4,10,16,22-tetraazacyclotetracosan-2,5,8,11,14,17,20,23-octaone]	0.001 to 0.01 µM	1 to 10 µM
CCc1ccn(Cc2ccc(C[C@H]3OC(=O)[C@H](CC(C)C)N(C)C(=O)[C@@H](C)OC(=O)[C@H](CC(C)C)N(C)C(=O)[C@@H](Cc4ccc(Cn5ccc(CC)n5)cc4)OC(=O)[C@H](CC(C)C)N(C)C(=O)[C@@H](C)OC(=O)[C@H](CC(C)C)N(C)C3=O)cc2)n1 [Example 1b-95, (3S,6R,9S,12R,15S,18R,21S,24R)-6,18-bis(4-((3-ethyl-1H-pyrazol-1-yl)methyl)benzyl)-3,9,15,21-tetraisobutyl-4,10,12,16,22,24-hexamethyl-1,7,13,19-tetraoxa-4,10,16,22-tetraazacyclotetracosan-2,5,8,11,14,17,20,23-octaone]	0.001 to 0.01 µM	1 to 10 µM
CC(C)C[C@H]1C(=O)O[C@H](Cc2ccc(Cn3cc4c(n3)CCOC4)cc2)C(=O)N(C)[C@@H](CC(C)C)C(=O)O[C@H](C)C(=O)N(C)[C@@H](CC(C)C)C(=O)O[C@H](Cc2ccc(Cn3cc4c(n3)CCOC4)cc2)C(=O)N(C)[C@@H](CC(C)C)C(=O)O[C@H](C)C(=O)N1C [Example 9-41, (3S,6R,9S,12R,15S,18R,21S,24R)-6,18-bis(4-((6,7-dihydropyrano[4,3-c]pyrazol-2(4H)-yl)methyl)benzyl)-3,9,15,21-tetraisobutyl-4,10,12,16,22,24-hexamethyl-1,7,13,19-tetraoxa-4,10,16,22-tetraazacyclotetracosan-2,5,8,11,14,17,20,23-octaone]	0.001 to 0.01 µM	1 to 10 µM
Cc1nn(Cc2ccc(C[C@H]3OC(=O)[C@H](CC(C)C)N(C)C(=O)[C@@H](C)OC(=O)[C@H](CC(C)C)N(C)C(=O)[C@@H](Cc4ccccc4)OC(=O)[C@H](CC(C)C)N(C)C(=O)[C@@H](C)OC(=O)[C@H](CC(C)C)N(C)C3=O)cc2)c(C)c1F [Example 2-79, (3S,6R,9S,12R,15S,18R,21S,24R)-6-benzyl-18-(4-((4-fluoro-3,5-dimethyl-1H-pyrazol-1-yl)methyl)benzyl)-3,9,15,21-tetraisobutyl-4,10,12,16,22,24-hexamethyl-1,7,13,19-tetraoxa-4,10,16,22-tetraazacyclotetracosan-2,5,8,11,14,17,20,23-octaone]	0.01 to 0.1 µM	1 to 10 µM
CC(C)C[C@H]1C(=O)O[C@H](Cc2ccc(Cn3nc(CO)cc3C3CC3)cc2)C(=O)N(C)[C@@H](CC(C)C)C(=O)O[C@H](C)C(=O)N(C)[C@@H](CC(C)C)C(=O)O[C@H](Cc2ccc(Cn3nc(C#N)cc3C#N)cc2)C(=O)N(C)[C@@H](CC(C)C)C(=O)O[C@H](C)C(=O)N1C [Example 1a-10, 1-(4-(((2R,5S,8R,11S,14R,17S,20R,23S)-14-(4-((5-cyclopropyl-3-(hydroxymethyl)-1H-pyrazol-1-yl)methyl)benzyl)-5,11,17,23-tetraisobutyl-4,8,10,16,20,22-hexamethyl-3,6,9,12,15,18,21,24-octaoxo-1,7,13,19-tetraoxa-4,10,16,22-tetraazacyclotetracosan-2-yl)methyl)benzyl)-1H-pyrazole-3,5-dicarbonitrile]	0.001 to 0.01 µM	1 to 10 µM
COC(C)(C)Cc1ccnn1Cc1ccc(C[C@H]2OC(=O)[C@H](CC(C)C)N(C)C(=O)[C@@H](C)OC(=O)[C@H](CC(C)C)N(C)C(=O)[C@@H](Cc3ccc(Cn4nccc4CC(C)(C)OC)cc3)OC(=O)[C@H](CC(C)C)N(C)C(=O)[C@@H](C)OC(=O)[C@H](CC(C)C)N(C)C2=O)cc1 [Example 1b-214, (3S,6R,9S,12R,15S,18R,21S,24R)-3,9,15,21-tetraisobutyl-6,18-bis(4-((5-(2-methoxy-2-methylpropyl)-1H-pyrazol-1-yl)methyl)benzyl)-4,10,12,16,22,24-hexamethyl-1,7,13,19-tetraoxa-4,10,16,22-tetraazacyclotetracosan-2,5,8,11,14,17,20,23-octaone]	0.01 to 0.1 µM	1 to 10 µM
CC(C)C[C@H]1C(=O)O[C@H](Cc2ccc(Cn3nccc3OC(C)C)cc2)C(=O)N(C)[C@@H](CC(C)C)C(=O)O[C@H](C)C(=O)N(C)[C@@H](CC(C)C)C(=O)O[C@H](Cc2ccc(Cn3ccc(OC(C)C)n3)cc2)C(=O)N(C)[C@@H](CC(C)C)C(=O)O[C@H](C)C(=O)N1C [Example 1a-35, (3S,6R,9S,12R,15S,18R,21S,24R)-3,9,15,21-tetraisobutyl-6-(4-((3-isopropoxy-1H-pyrazol-1-yl)methyl)benzyl)-18-(4-((5-isopropoxy-1H-pyrazol-1-yl)methyl)benzyl)-4,10,12,16,22,24-hexamethyl-1,7,13,19-tetraoxa-4,10,16,22-tetraazacyclotetracosan-2,5,8,11,14,17,20,23-octaone]	0.01 to 0.1 µM	1 to 10 µM
CC(C)C[C@H]1C(=O)O[C@H](Cc2ccc(Cn3nc(C4CC4)cc3C3CC3)cc2)C(=O)N(C)[C@@H](CC(C)C)C(=O)O[C@H](C)C(=O)N(C)[C@@H](CC(C)C)C(=O)O[C@H](Cc2ccc(Cn3nc(CO)cc3C3CC3)cc2)C(=O)N(C)[C@@H](CC(C)C)C(=O)O[C@H](C)C(=O)N1C [Example 1a-14, (3S,6R,9S,12R,15S,18R,21S,24R)-6-(4-((5-cyclopropyl-3-(hydroxymethyl)-1H-pyrazol-1-yl)methyl)benzyl)-18-(4-((3,5-dicyclopropyl-1H-pyrazol-1-yl)methyl)benzyl)-3,9,15,21-tetraisobutyl-4,10,12,16,22,24-hexamethyl-1,7,13,19-tetraoxa-4,10,16,22-tetraazacyclotetracosan-2,5,8,11,14,17,20,23-octaone]	0.01 to 0.1 µM	1 to 10 µM
Cc1cc(C)n(Cc2ccc(C[C@H]3OC(=O)[C@H](CC(C)C)N(C)C(=O)[C@@H](C)OC(=O)[C@H](CC(C)C)N(C)C(=O)[C@@H](Cc4ccccc4)OC(=O)[C@H](CC(C)C)N(C)C(=O)[C@@H](C)OC(=O)[C@H](CC(C)C)N(C)C3=O)cc2)n1 [Example 2-7, (3S,6R,9S,12R,15S,18R,21S,24R)-6-benzyl-18-[[4-[(3,5-dimethylpyrazol-1-yl)methyl]phenyl]methyl]-3,9,15,21-tetraisobutyl-4,10,12,16,22,24-hexamethyl-1,7,13,19-tetraoxa-4,10,16,22-tetrazacyclotetracosane-2,5,8,11,14,17,20,23-octaone]	0.001 to 0.01 µM	1 to 10 µM
Cc1ccn(Cc2ccc(C[C@H]3OC(=O)[C@H](CC(C)C)N(C)C(=O)[C@@H](C)OC(=O)[C@H](CC(C)C)N(C)C(=O)[C@@H](Cc4ccc(Cn5ccc(C)n5)cc4)OC(=O)[C@H](CC(C)C)N(C)C(=O)[C@@H](C)OC(=O)[C@H](CC(C)C)N(C)C3=O)cc2)n1 [Example 1b-94, (3S,6R,9S,12R,15S,18R,21S,24R)-3,9,15,21-tetraisobutyl-4,6,10,16,18,22-hexamethyl-12,24-bis(4-((3-methyl-1H-pyrazol-1-yl)methyl)benzyl)-1,7,13,19-tetraoxa-4,10,16,22-tetraazacyclotetracosan-2,5,8,11,14,17,20,23-octaone]	0.001 to 0.01 µM	≤ 1 µM
Cc1nc(C2CC2)n(Cc2ccc(C[C@H]3OC(=O)[C@H](CC(C)C)N(C)C(=O)[C@@H](C)OC(=O)[C@H](CC(C)C)N(C)C(=O)[C@@H](Cc4ccc(Cn5nc(C)nc5C5CC5)cc4)OC(=O)[C@H](CC(C)C)N(C)C(=O)[C@@H](C)OC(=O)[C@H](CC(C)C)N(C)C3=O)cc2)n1 [Example 9-57, (3S,6R,9S,12R,15S,18R,21S,24R)-6,18-bis(4-((5-cyclopropyl-3-methyl-1H-1,2,4-triazol-1-yl)methyl)benzyl)-3,9,15,21-tetraisobutyl-4,10,12,16,22,24-hexamethyl-1,7,13,19-tetraoxa-4,10,16,22-tetraazacyclotetracosan-2,5,8,11,14,17,20,23-octaone]	0.01 to 0.1 µM	1 to 10 µM
CC(C)C[C@H]1C(=O)O[C@H](Cc2ccc(Cn3nc(C4CC4)c(N)c3C3CC3)cc2)C(=O)N(C)[C@@H](CC(C)C)C(=O)O[C@H](C)C(=O)N(C)[C@@H](CC(C)C)C(=O)O[C@H](Cc2ccc(Cn3nc(C4CC4)c(N)c3C3CC3)cc2)C(=O)N(C)[C@@H](CC(C)C)C(=O)O[C@H](C)C(=O)N1C [Example 1b-145, (3S,6R,9S,12R,15S,18R,21S,24R)-6,18-bis(4-((4-amino-3,5-dicyclopropyl-1H-pyrazol-1-yl)methyl)benzyl)-3,9,15,21-tetraisobutyl-4,10,12,16,22,24-hexamethyl-1,7,13,19-tetraoxa-4,10,16,22-tetraazacyclotetracosan-2,5,8,11,14,17,20,23-octaone]	0.001 to 0.01 µM	1 to 10 µM
